Source: US20070059385A1, “Safe pharmaceutical composition for treating and preventing cancer and method of use” (priority 2005, published 2007)

Tests used:
[1] = test system: kidney cell cultures; experiment: Analysis of chromosomes (chromosomal aberrations in kidney); assay type: in vivo
Protocol: For metaphase chromosomes, kidney cell cultures were treated with colchicines (0.4 μg/ml) for 3-4 hours. The cells were then trypsinized and treated with hypotonic solution (0.075 M KCl) at 37° C. for 30 minutes. The cell suspensions were centrifuged and the pellets fixed in cold acetic acid:methanol (1:3) solution. Slides were prepared by standard air-drying method and stained with 2% Giemsa solution. The results scored by analyzing at least 200 well spread metaphases with 44±2 chromosomes for gaps, chromatid and chromosome breaks and exchanges, and association. Chromatid and chromosome aberrations were scored separately, and the total percentage was subjected to statistical analysis. Gaps were recorded but not included in the total frequency. Endoreduplication (endomitosis) was estimated from at least 500 cells/animal and expressed as a percentage.

[2] = test system: TA97; experiment: Salmonella mutagenicity assay TA97
Protocol: (§1) The method for detecting mutagenicity of HHT, with the Salmonella system that detects the reversion of the bacteria from His^− to His^+, is widely used.
(§2) The bacterial tester strains used for mutagenesis testing are TA97, TA98, TA100 and TA102. Mutagenesis testing method was done as described previously ^[77-88]. In brief, TA97, TA98, TA100 and TA102 were grown in agar gel culture. The petri plats (100×15 mm style) contain 30 ml with 2% glucose. The agar mixture was agitated vigorously and immediately poured into plates of minimal agar. The cultures were incubated at 37° C. in a dark and 5% CO2 in air for 48 hours. After 48 hours the colonies in both test and controls are counted. The presence of a background lawn of bacteria on the histidine-poor soft agar plate was used as an indication that gross toxic effects were absent. Mutagenicity assays were carried out at least in triplicate.
(§3) The range of spontaneous mutation rates for the individual strains, which were considered to be acceptable, was TA97 (100-170), TA98 (20-40) and TA100 (80-150).

[3] = test system: TA98; experiment: Salmonella mutagenicity assay TA98
Protocol: as §1, §2, §3

[4] = test system: TA100; experiment: Salmonella mutagenicity assay TA100
Protocol: as §1, §2, §3

[5] = Metabolism (organ and blood radioactivity) of [^3H]-HHT in P388 mice; assay type: in vivo; details: P388 mice, [^3H]-HHT 1 mg/kg
Protocol: Animals: Adult DBA/2J male mice, 6 to 8 weeks old. All animals weighed approximately 25 g when used in experiments. Each member of which received identical dosed (i.p.) of HHT.
Tumor: P388 leukemic cells induced in mice by inoculation with L1210 or P388 leukemic cells ([…]).
After P388 induced in mice 5 days, 1 mg/kg of [^3H]-HHT (100 μC/mg) was injected to mice. Volumes were 0.01 ml/g body weight. […] The key data of HHT in metabolism process are determined counts per minute (CPM) of [^3H]-HHT in organs. CPM is determined by liquid scintillation counting (LSC). The methods of LSC combined with radioactive of [^3H]-HHT can be determined using a tracer of HHT in organs. After killed animals, organs and blood were obtained from P388 mice. Organs were weighted. 10 mg of organs were digested. 10 ml of scintillation solution (which containing […]) were added to digested solution and determined at LSC. Other processes are similar to the standard method.

[6] = duration of treatment 0.5 months
[7] = duration of treatment 1.0 months
[8] = duration of treatment 2.0 months
[9] = duration of treatment 3.0 months
[10] = duration of treatment 4.0 months
[11] = duration of treatment 5.0 months

COC(=O)C[C@](O)(CCCC(C)(C)O)C(=O)O[C@@H]1C(OC)=C[C@]23CCCN2CCc2cc4c(cc2[C@H]13)OCO4 [HHT, Homoharringtonine]
% Aberrant cells (mean ± SEM) [1, 6]: 0.5 ± 0.1% | Aberration/100 cells, Chromosome Breaks [1, 6]: 0.1 /100 cells | % Aberrant cells (mean ± SEM) [1, 7]: 0.8 ± 0.2% | Aberration/100 cells, Chromosome Breaks [1, 7]: 0.5 /100 cells | % Aberrant cells (mean ± SEM) [1, 8]: 1.2 ± 0.4% | Aberration/100 cells, Chromosome Breaks [1, 8]: 0.7 /100 cells | Aberration/100 cells, Chromosome Exchanges [1, 8]: 0.1 /100 cells | % Aberrant cells (mean ± SEM) [1, 9]: 1.8 ± 0.7% | Aberration/100 cells, Chromosome Breaks [1, 9]: 0.9 /100 cells | % Aberrant cells (mean ± SEM) [1, 10]: 2.6 ± 0.8% | Aberration/100 cells, Chromosome Breaks [1, 10]: 1.2 /100 cells | Aberration/100 cells, Chromosome Exchanges [1, 10]: 0.1 /100 cells | % Aberrant cells (mean ± SEM) [1, 11]: 5.5 ± 0.5% | Aberration/100 cells, Chromosome Breaks [1, 11]: 1.3 /100 cells | Aberration/100 cells, Chromosome Exchanges [1, 11]: 0.2 /100 cells | Number of His^+ revertants/plate ([2]; TA97 +S, 0.1 μg/plate): 145 ± 14 revertants/plate | Number of His^+ revertants/plate ([2]; TA97 +S, 1 μg/plate): 150 ± 14 revertants/plate | Number of His^+ revertants/plate ([2]; TA97 +S, 10 μg/plate): 165 ± 16 revertants/plate | Number of His^+ revertants/plate ([2]; TA97 +S, 100 μg/plate): 160 ± 17 revertants/plate | Number of His^+ revertants/plate ([2]; TA97 −S, 0.1 μg/plate): 120 ± 10 revertants/plate | Number of His^+ revertants/plate ([2]; TA97 −S, 1 μg/plate): 130 ± 11 revertants/plate | Number of His^+ revertants/plate ([2]; TA97 −S, 10 μg/plate): 160 ± 16 revertants/plate | Number of His^+ revertants/plate ([2]; TA97 −S, 100 μg/plate): 150 ± 16 revertants/plate | Number of His^+ revertants/plate ([3]; TA98 +S, 0.1 μg/plate): 34 ± 4 revertants/plate | Number of His^+ revertants/plate ([3]; TA98 +S, 1 μg/plate): 32 ± 4 revertants/plate | Number of His^+ revertants/plate ([3]; TA98 +S, 10 μg/plate): 36 ± 3 revertants/plate | Number of His^+ revertants/plate ([3]; TA98 +S, 100 μg/plate): 34 ± 4 revertants/plate | Number of His^+ revertants/plate ([3]; TA98 −S, 0.1 μg/plate): 29 ± 3 revertants/plate | Number of His^+ revertants/plate ([3]; TA98 −S, 1 μg/plate): 30 ± 3 revertants/plate | Number of His^+ revertants/plate ([3]; TA98 −S, 10 μg/plate): 38 ± 4 revertants/plate | Number of His^+ revertants/plate ([3]; TA98 −S, 100 μg/plate): 32 ± 4 revertants/plate | Number of His^+ revertants/plate ([4]; TA100 +S, 0.1 μg/plate): 158 revertants/plate | Number of His^+ revertants/plate ([4]; TA100 +S, 1 μg/plate): 152 revertants/plate | Number of His^+ revertants/plate ([4]; TA100 +S, 10 μg/plate): 165 revertants/plate | Number of His^+ revertants/plate ([4]; TA100 +S, 100 μg/plate): 160 revertants/plate | Number of His^+ revertants/plate ([4]; TA100 −S, 0.1 μg/plate): 148 ± 12 revertants/plate | Number of His^+ revertants/plate ([4]; TA100 −S, 1 μg/plate): 140 ± 13 revertants/plate | Number of His^+ revertants/plate ([4]; TA100 −S, 10 μg/plate): 162 ± 17 revertants/plate | Number of His^+ revertants/plate ([4]; TA100 −S, 100 μg/plate): 158 ± 15 revertants/plate | CMP/mg organ, Bone ([5]; 1 hour): 500 CMP/mg organ | CMP/mg organ, Brain ([5]; 1 hour): 499 CMP/mg organ | CMP/mg organ, Contents of intestine ([5]; 1 hour): 3323 CMP/mg organ | CMP/mg organ, Contents of stomach ([5]; 1 hour): 6821 CMP/mg organ | CMP/mg organ, Heart ([5]; 1 hour): 1403 CMP/mg organ | CMP/mg organ, Intestine ([5]; 1 hour): 1638 CMP/mg organ | CMP/mg organ, Kidney ([5]; 1 hour): 6501 CMP/mg organ | CMP/mg organ, Liver ([5]; 1 hour): 4145 CMP/mg organ | CMP/mg organ, Lung ([5]; 1 hour): 2100 CMP/mg organ | CMP/mg organ, Spleen ([5]; 1 hour): 2828 CMP/mg organ | CMP/mg organ, Stomach ([5]; 1 hour): 1626 CMP/mg organ | CMP/mg organ, Bone ([5]; 3 hours): 560 CMP/mg organ | CMP/mg organ, Brain ([5]; 3 hours): 646 CMP/mg organ | CMP/mg organ, Contents of intestine ([5]; 3 hours): 7215 CMP/mg organ | CMP/mg organ, Contents of stomach ([5]; 3 hours): 84375 CMP/mg organ | CMP/mg organ, Heart ([5]; 3 hours): 1800 CMP/mg organ | CMP/mg organ, Intestine ([5]; 3 hours): 3288 CMP/mg organ | CMP/mg organ, Kidney ([5]; 3 hours): 3121 CMP/mg organ | CMP/mg organ, Liver ([5]; 3 hours): 6718 CMP/mg organ | CMP/mg organ, Lung ([5]; 3 hours): 2427 CMP/mg organ | CMP/mg organ, Spleen ([5]; 3 hours): 2426 CMP/mg organ | CMP/mg organ, Stomach ([5]; 3 hours): 2321 CMP/mg organ | CMP/mg organ, Bone ([5]; 6 hours): 505 CMP/mg organ | CMP/mg organ, Brain ([5]; 6 hours): 793 CMP/mg organ | CMP/mg organ, Contents of intestine ([5]; 6 hours): 6250 CMP/mg organ | CMP/mg organ, Contents of stomach ([5]; 6 hours): 100719 CMP/mg organ | CMP/mg organ, Heart ([5]; 6 hours): 1193 CMP/mg organ | CMP/mg organ, Intestine ([5]; 6 hours): 2475 CMP/mg organ | CMP/mg organ, Kidney ([5]; 6 hours): 3501 CMP/mg organ | CMP/mg organ, Liver ([5]; 6 hours): 4109 CMP/mg organ | CMP/mg organ, Lung ([5]; 6 hours): 1788 CMP/mg organ | CMP/mg organ, Spleen ([5]; 6 hours): 2198 CMP/mg organ | CMP/mg organ, Stomach ([5]; 6 hours): 3703 CMP/mg organ | CMP/mg organ, Bone ([5]; 24 hours): 480 CMP/mg organ | CMP/mg organ, Brain ([5]; 24 hours): 986 CMP/mg organ | CMP/mg organ, Contents of intestine ([5]; 24 hours): 5009 CMP/mg organ | CMP/mg organ, Contents of stomach ([5]; 24 hours): 117914 CMP/mg organ | CMP/mg organ, Heart ([5]; 24 hours): 893 CMP/mg organ | CMP/mg organ, Intestine ([5]; 24 hours): 1067 CMP/mg organ | CMP/mg organ, Kidney ([5]; 24 hours): 1065 CMP/mg organ | CMP/mg organ, Liver ([5]; 24 hours): 2175 CMP/mg organ | CMP/mg organ, Lung ([5]; 24 hours): 1312 CMP/mg organ | CMP/mg organ, Spleen ([5]; 24 hours): 2156 CMP/mg organ | CMP/mg organ, Stomach ([5]; 24 hours): 1823 CMP/mg organ
